The target in one data set is Stromelysin (Homo sapiens, UniProt P08254). In words: MMP inhibition, particle concentration fluorescence assay (stromelysin). Type of data set: biochemical. The note with it: in vitro; fluorescein/biotin substrate; MMP buffer pH 7.5; room temperature. Here is the method: Inhibitory activity is evaluated in one or more of the MMP enzymes (stromelysin, gelatinase, and collagenase) in vitro using particle concentration fluorescence assay. An inhibitor binds to MMP enzymes which prevents the degradation of a substrate by stromelysin, gelatinase, or coilagenase. The substrate has attached to it a fluorescein and a biotin moiety. The intact substrate then binds to an avidin-coated particle via the biotin moiety. Once the particle is washed and dried, a fluorescent signal is generated since the fluorescent group is attached to the particle. Without an inhibitor present, the substrate is degraded by MMP enzymes and the fluorescein group is removed, therefore, no fluorescent signal can be detected. Testing compounds are dissolved in DMSO to the desired concentration, then the solutions are diluted to 1:5 with MMP buffer (50 mM Tris-HCl, pH 7.5; 150 mM NaCl; 0.02% NaN3). Serial two-fold dilutions of each compound are prepared. A concentrated, activated enzyme solution is transferred into each plate of the testing compounds, and the mixture is incubated at room temperature for 15 minutes. Thawed MMP substrate is then added into all plates, and the plates are incubated in the dark for 1-3 hours at room temperature. At this point, the substrate mixture is mixed with 0.1% avidin-coated polystyrene particles. After 15 minutes, the fluorescence values are measured following filtration and washing of the beads. Ki values are then calculated.
Chain of Stromelysin (P08254 100-477): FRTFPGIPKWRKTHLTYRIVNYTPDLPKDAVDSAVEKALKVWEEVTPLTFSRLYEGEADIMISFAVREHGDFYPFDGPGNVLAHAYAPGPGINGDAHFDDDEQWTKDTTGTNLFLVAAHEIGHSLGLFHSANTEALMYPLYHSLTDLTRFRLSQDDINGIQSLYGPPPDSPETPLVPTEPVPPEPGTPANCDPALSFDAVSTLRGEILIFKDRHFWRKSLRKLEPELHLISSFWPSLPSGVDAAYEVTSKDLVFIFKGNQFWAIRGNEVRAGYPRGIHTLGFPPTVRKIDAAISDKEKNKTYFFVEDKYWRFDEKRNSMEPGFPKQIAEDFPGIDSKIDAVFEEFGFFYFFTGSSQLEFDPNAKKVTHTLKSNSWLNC
For the molecule `COc1ccc(S(=O)(=O)CC(O)(CS(=O)(=O)c2ccc(-c3ccccc3)cc2)C(=O)NO)cc1` (racemic) [Example 1, N-Hydroxy-2-hydroxy-2-[(4-methoxybenzenesulfonyl)methyl]-3-(4-phenylbenzenesulfonyl)-propionamide], the Ki (usually the equilibrium dissociation constant of an inhibitor or competing ligand from its target) amounted to 74 nM. The same measure, in the same setting: the result for `COc1ccc(S(=O)(=O)CC(O)(CS(=O)(=O)c2ccc(-c3ccccc3)cc2)C(=O)NO)cc1` (single isomer, unassigned) [Example 1, Enantiomer A, N-Hydroxy-2-hydroxy-2-[(4-methoxybenzenesulfonyl)methyl]-3-(4-phenylbenzenesulfonyl)-propionamide] reads 21 nM; that for `COc1ccc(S(=O)(=O)CC(O)(CS(=O)(=O)c2ccc(-c3ccccc3)cc2)C(=O)NO)cc1` (single isomer, unassigned) [Example 1, Enantiomer B, N-Hydroxy-2-hydroxy-2-[(4-methoxybenzenesulfonyl)methyl]-3-(4-phenylbenzenesulfonyl)-propionamide], 80 nM; that for `COc1ccc(S(=O)(=O)CC(O)(CS(=O)(=O)c2ccc(F)cc2)C(=O)NO)cc1` (stereo not shown) [Example 2, N-Hydroxy-2-hydroxy-2-[(4-methoxybenzenesulfonyl)methyl]-3-(4-fluorobenzenesulfonyl)-propionamide], 180 nM.

`CCCCc1ccc(S(=O)(=O)CC(O)(CS(=O)(=O)c2ccc(OC)cc2)C(=O)NO)cc1` (stereo not shown) [Example 3, N-Hydroxy-2-hydroxy-2-[(4-methoxybenzenesulfonyl)methyl]-3-(4-n-butylbenzenesulfonyl)-propionamide] yielded an inhibition constant (Ki) of 46 nM. Molecule `COc1ccc(S(=O)(=O)CC(O)(CS(=O)(=O)c2ccc(OC)cc2)C(=O)NO)cc1` [Example 4] gave a Ki of 39 nM. On to `COc1ccc(S(=O)(=O)CC(O)(CNC(=O)c2ccccc2)C(=O)NO)cc1` (stereo not shown) [Example 5], for which the Ki worked out at 240 nM.

The molecule `COc1ccc(S(=O)(=O)CC(O)(CNC(=O)C2CCCC2)C(=O)NO)cc1` (stereo not shown) [Example 6, N-Hydroxy-2-hydroxy-2-[(4-methoxybenzenesulfonyl)methyl]-3-[N-(cyclopentylcarbonyl)amino]-propionamide] yielded an inhibitory constant (Ki) of 350 nM. `COc1ccc(C(=O)NCC(O)(CS(=O)(=O)c2ccc(OC)cc2)C(=O)NO)cc1` (stereo not shown) [Example 7, N-Hydroxy-2-hydroxy-2-[(4-methoxybenzenesulfonyl)methyl]-3-(N-(4-methoxybenzenecarbonyl)amino)-propionamide] gave a Ki of 280 nM.

Tested on in the next data set: not given
Test: not given
Conditions: not given
On to `COc1ccc(S(=O)(=O)CC(O)(CS(=O)(=O)c2ccc(OC)cc2)C(=O)NO)cc1` [Example 4], for which the melting point (in general, the temperature of the solid-liquid transition) was 75 to 80 °C.

The record behind these values is US6437177B1, “α-hydroxy, -amino, and halo derivatives of β-sulfonyl hydroxamic acids as matrix metallopropteinases inhibitors” (priority 1997, dated 2002).
